Source: patent US20230089073A1 (Carmot Therapeutics, Inc., priority 2021, published 2023)

Biological target: T1, human GLP-1 receptor (Homo sapiens, UniProt P43220)
T1 construct: expressed in transfected cells
Experiment: GLP-1R cAMP Assay
Type: cell-based
Settings: cAMP accumulation in CHO cells stably overexpressing the human GLP-1 receptor; 30 min treatment; HitHunter cAMP kit; read-out: EC50
Description: cAMP accumulation was measured in Chinese hamster ovary (CHO) cells stably overexpressing the human GLP-1 receptor using the HitHunter cAMP Assay for Small Molecules Kit (Eurofins). Briefly, cells were grown in Ham's F12 Nutrient Mix with 10% FBS, and lifted with Cell Dissociation Buffer, Enzyme free, PBS based (ThermoFisher). […] The anti-cAMP antibody reagent was then added to cells at a 1:2 ratio and 5 μL of mixture was seeded in 384-well small volume white assay plates, at 10,000 cells/well. Cells were then treated with 50 nL compound using an ECHO 550 acoustic dispenser (Labcyte) in a 20-point dose response format in triplicate for 30 min. Cells were then lysed, and detection reagents added according to the manufacturer's protocol. After overnight incubation, luminescence was measured using a Perkin Elmer Envision plate reader. Dose response curves were analyzed using GraphPad Prism 9.0.

T1 sequence (P43220 24-463): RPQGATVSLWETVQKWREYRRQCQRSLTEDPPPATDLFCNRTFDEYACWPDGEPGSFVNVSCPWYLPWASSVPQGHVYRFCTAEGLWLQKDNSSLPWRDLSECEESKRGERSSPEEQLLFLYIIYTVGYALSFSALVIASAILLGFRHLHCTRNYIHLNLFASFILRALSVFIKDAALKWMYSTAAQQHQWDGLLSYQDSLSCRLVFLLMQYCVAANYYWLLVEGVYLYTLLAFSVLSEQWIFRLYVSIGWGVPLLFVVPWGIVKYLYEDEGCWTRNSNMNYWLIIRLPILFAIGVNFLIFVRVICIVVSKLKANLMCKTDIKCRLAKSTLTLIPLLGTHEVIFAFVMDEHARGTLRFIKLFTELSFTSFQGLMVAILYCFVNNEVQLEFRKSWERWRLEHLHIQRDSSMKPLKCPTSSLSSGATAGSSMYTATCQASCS

## Cc1ccc(OCc2ccc(C(=O)N3CCN(Cc4nc5ccc(C(=O)O)cc5n4C[C@@H]4CCO4)CC3)o2)c(Cl)c1 [Compound 38, 2-[(4-{5-[(2-chloro-4-methylphenoxy)methyl]furan-2-carbonyl}piperazin-1-yl)methyl]-1-{[(2S)-oxetan-2-yl]methyl}-1H-1,3-benzodiazole-6-carboxylic acid]
  EC50: > 500 nM

## Cc1ccc(Cc2cccc(C(=O)N3CCN(Cc4nc5ccc(C(=O)O)cc5n4C[C@@H]4CCO4)CC3)c2)c(Cl)c1 [Example 32, (S)-2-((4-(3-(2-Chloro-4-methylbenzyl)benzoyl)piperazin-1-yl)methyl)-1-(oxetan-2-ylmethyl)-1H-benzo[d]imidazole-6-carboxylic acid]
  EC50: 50 to 500 nM

## N#Cc1ccc(OCc2nccc(OC3CCN(Cc4nc5ccc(C(=O)O)cc5n4CC4(CF)CC4)CC3)n2)c(F)c1 [Compound 343]
  EC50: < 50 nM

## Cc1ccc(N(C)c2cccc(C(=O)N3CCN(Cc4nc5ccc(C(=O)O)cc5n4C[C@@H]4CCO4)CC3)c2)cc1 [Compound 29, 2-[(4-{3-[methyl(4-methylphenyl)amino]benzoyl}piperazin-1-yl)methyl]-1-{[(2S)-oxetan-2-yl]methyl}-1H-1,3-benzodiazole-6-carboxylic acid]
  EC50: 50 to 500 nM

## CCn1cncc1Cn1c(CN2CCN(C(=O)c3cccc(Oc4ccc(C)cc4Cl)c3)CC2)nc2ccc(C(=O)O)cc21 [Example 57, 2-((4-(3-(2-Chloro-4-methylphenoxy)benzoyl)piperazin-1-yl)methyl)-1-((1-ethyl-1H-imidazol-5-yl)methyl)-1H-benzo[d]imidazole-6-carboxylic acid]
  EC50: 50 to 500 nM

## N#Cc1ccc(OCc2nccc(OC3CCN(Cc4nc5ncc(C(=O)O)cc5n4C[C@@H]4CCO4)CC3)n2)c(F)c1 [Example 486, (S)-2-((4-((2-((4-Cyano-2-fluorophenoxy)methyl)pyrimidin-4-yl)oxy)piperidin-1-yl)methyl)-1-(oxetan-2-ylmethyl)-1H-imidazo[4,5-b]pyridine-6-carboxylic acid]
  EC50: < 50 nM

## C[C@H]1C[C@@H](Oc2ccnc(COc3ccc(F)cc3C#N)n2)CCN1Cc1nc2ccc(C(=O)O)cc2n1CC1(CC#N)CC1 [Compound 353]
  EC50: < 50 nM

## COCCC1(Cn2c(CN3CCC(Oc4ccnc(COc5ccc(Cl)cc5F)c4)CC3)nc3ccc(C(=O)O)cc32)CC1 [Compound 354]
  EC50: < 50 nM

## CCn1cncc1Cn1c(CN2CCC(Oc3ccnc(COc4ccc(Cl)cc4C#N)c3)CC2(C)C)nc2ccc(C(=O)O)cc21 (stereo not drawn) [Example 276, 2-((4-((2-((4-Chloro-2-cyanophenoxy)methyl)pyridin-4-yl)oxy)-2,2-dimethylpiperidin-1-yl)methyl)-1-((1-ethyl-1H-imidazol-5-yl)methyl)-1H-benzo[d]imidazole-6-carboxylic acid]
  EC50: < 50 nM

## Cn1cncc1Cn1c(CN2CCC(Oc3cccc(COc4ccc(Cl)cc4F)n3)CC2)nc2ccc(C(=O)O)cc21 [Compound 264, 2-{[4-({6-[(4-chloro-2-fluorophenoxy)methyl]pyridin-2-yl}oxy)piperidin-1-yl]methyl}-1-[(1-methyl-1H-imidazol-5-yl)methyl]-1H-1,3-benzodiazole-6-carboxylic acid]
  EC50: < 50 nM

## N#Cc1cc(Cl)ccc1OCc1cc(OC2CCN(Cc3nc4ccc(C(=O)O)cc4n3Cc3ccno3)CC2)ccn1 [Compound 241, 2-{[4-({2-[(4-chloro-2-cyanophenoxy)methyl]pyridin-4-yl}oxy)piperidin-1-yl]methyl}-1-[(1,2-oxazol-5-yl)methyl]-1H-1,3-benzodiazole-6-carboxylic acid]
  EC50: < 50 nM

## C[C@H]1C[C@@H](Oc2ccnc(COc3ccc(Cl)cc3Cl)c2)CCN1Cc1nc2ccc(C(=O)O)cc2n1C[C@@H]1CCO1 [Compound 283, 2-{[(2S,4S)-4-({2-[(2,4-dichlorophenoxy)methyl]pyridin-4-yl}oxy)-2-methylpiperidin-1-yl]methyl}-1-{[(2S)-oxetan-2-yl]methyl}-1H-1,3-benzodiazole-6-carboxylic acid]
  EC50: < 50 nM
